Columns and labels:
PTP1B = biological target: T1, PTP1B (Homo sapiens, UniProt P18031); test: Inhibition of human recombinant tyrosine phosphatase PTP1B (DiFMUP fluorescence); assay type: biochemical; conditions: for Inhibition of PTP1B, percentage of inhibition of the control: 1 µM, control solvent only, SD did not exceed 6%; for Log IC50 ± SD PTP1B: logarithm of IC50; for IC50: read-out: IC50 PTP1B
T1 construct: purchased Sigma-Aldrich
T1 sequence (P18031 1-435): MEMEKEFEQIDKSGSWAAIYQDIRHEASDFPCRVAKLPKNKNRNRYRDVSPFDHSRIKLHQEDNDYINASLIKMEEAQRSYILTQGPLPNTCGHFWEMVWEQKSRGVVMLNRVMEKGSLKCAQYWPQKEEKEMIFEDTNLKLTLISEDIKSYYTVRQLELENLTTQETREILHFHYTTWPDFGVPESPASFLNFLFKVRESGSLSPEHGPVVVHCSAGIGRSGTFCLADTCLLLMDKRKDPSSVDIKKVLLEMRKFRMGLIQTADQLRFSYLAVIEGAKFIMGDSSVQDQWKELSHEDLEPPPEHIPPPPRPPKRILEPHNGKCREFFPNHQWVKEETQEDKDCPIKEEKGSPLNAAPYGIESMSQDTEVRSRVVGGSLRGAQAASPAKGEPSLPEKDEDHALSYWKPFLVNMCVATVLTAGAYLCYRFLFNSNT
In short: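 Human recombinant PTP1B (final 50 ng/mL) in buffer of 25 mM MOPS, 50 mM NaCl, 1 mM DTT and 0.05% Tween-20 (pH 7.0) was dispensed onto test compound in black 384-well plates. After 10 min, DiFMUP was added to 0.1 mM. Plates were incubated 20 min at 23 °C and fluorescence read (ex 355, em 560 nm). Assays were run in triplicate, with inhibition relative to enzyme-plus-vehicle control and IC50 fitted in GraphPad Prism.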

LAR = biological target: T2, LAR (Homo sapiens, UniProt P10586); test: Inhibition of human recombinant tyrosine phosphatase LAR (DiFMUP fluorescence); assay type: biochemical; conditions: for Inhibition of LAR, percentage of inhibition of the control: 1 µM, control solvent only, SD did not exceed 6%
T2 sequence (P10586 1352-1607 limits assumed): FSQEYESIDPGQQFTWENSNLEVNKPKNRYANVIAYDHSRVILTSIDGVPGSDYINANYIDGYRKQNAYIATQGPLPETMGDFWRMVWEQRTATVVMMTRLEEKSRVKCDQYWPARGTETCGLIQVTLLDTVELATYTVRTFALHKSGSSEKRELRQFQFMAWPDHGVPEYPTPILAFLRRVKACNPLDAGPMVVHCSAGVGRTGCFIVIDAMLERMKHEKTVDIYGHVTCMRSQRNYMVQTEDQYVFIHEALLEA
In short: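 Human recombinant phosphatases (SHP1 400 ng/mL, SHP2 50 ng/mL, LAR 5 ng/mL final) were pre-incubated 10 min with compound in 25 mM MOPS pH 7.0, 50 mM NaCl, 1 mM DTT, 0.05% Tween-20. DiFMUP (0.1 mM final) was added for 20 min at 23 °C and fluorescence read at 355/560 nm. Screening used 1 µM compound (% inhibition vs vehicle); IC50 also reported.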

PP2A = PP2A (Homo sapiens, UniProt P67775); test: Inhibition of human recombinant non-tyrosine phosphatase PP2A (DiFMUP); assay type: biochemical
In short: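 Compound pre-incubated 10 min with enzyme: PP2A at 0.5 U/mL in 50 mM Tris-HCl pH 7.0, 0.05% Tween-20, 125 µg/mL BSA with 0.1 mM DiFMUP; CDC25A at 400 ng/mL with 0.2 mM 3-O-methylfluorescein phosphate. Incubation 180 min at 23 °C; fluorescence (ex 355/em 560 nm) read, percent inhibition versus vehicle control, triplicate.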

hepatocytes HepG2 = test: Lipid accumulation in the cell model of NAFLD (oleic acid, AdipoRed); assay type: cell-based, human; conditions: 10 µM; 24 h
Description: The human hepatocyte HepG2 cell line (ATCC HB-8065) was cultured according to standard protocol in DMEM supplemented with 10% fetal bovine serum, 100 IU/mL penicillin, and […] streptomycin at 37 °C in 5% CO2. Cells were pleated on a 96-well microplate and were used at 18–24 h after seeding.
The induction of hepatic lipid accumulation and studies on the effect of vanadium complexes on this process were carried out based on previous descriptions. […] After 16–24 h, the standard medium was changed for DMEM with 0.1% BSA fatty acid free and 0.5 mM oleic acid as sodium salt and tested compounds were added. Cells were incubated for 24 h, and the intracellular lipid content was evaluated using AdipoRed Adipogenesis Assay Reagent (Lonza) according to the manufacturer’s protocol. Hepatocytes were washed with PBS with calcium and magnesium, and 5 µL AdipoRed Reagent in 200 µL PBS was added, with the mixture incubated for 10 min at 22 °C. Fluorescence signal proportional to lipid content in cells was measured at excitation in 530 nm and emission in 550 nm using a multimodal microplate reader POLARStar Omega (BMG Labtech). The results were normalized to the untreated control (cells with solvent only), wherein the intensity of fluorescence was taken as 100%.

Chain of PP2A (P67775 whole entry): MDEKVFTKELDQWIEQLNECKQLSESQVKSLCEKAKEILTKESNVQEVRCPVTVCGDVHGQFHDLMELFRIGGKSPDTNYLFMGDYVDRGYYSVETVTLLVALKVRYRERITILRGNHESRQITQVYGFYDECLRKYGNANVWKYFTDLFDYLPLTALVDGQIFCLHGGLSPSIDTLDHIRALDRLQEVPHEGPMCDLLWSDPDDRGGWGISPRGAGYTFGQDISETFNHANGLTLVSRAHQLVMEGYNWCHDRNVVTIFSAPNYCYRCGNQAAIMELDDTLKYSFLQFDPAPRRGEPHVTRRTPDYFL

Question: With `Cc1occc(=O)c1[O-].Cc1occc(=O)c1[O-].[O]=[V+2]` [BMOV, bis(maltolato)oxidovanadium(IV), reference compound] as the compound, how does the “Inhibition of PTP1B, percentage of inhibition of the control” value (PTP1B) read?
Answer: 77%

Question: What about the “Log IC50 ± SD PTP1B” value (PTP1B) of the same compound?
Answer: −6.83 ± 0.02

Question: And the IC50 (PTP1B)?
Answer: 149 nM

Question: And the IC50 (LAR)?
Answer: 140 nM

Question: And the “Inhibition of LAR, percentage of inhibition of the control” value (LAR)?
Answer: 58%

Question: And the “Inhibition of PP2A, percentage inhibition of control ± SD” value (PP2A; 1 µM)?
Answer: 52 ± 15%

Question: What about the “Inhibition of PP2A, percentage inhibition of control ± SD” value (PP2A; 10 µM) of the same compound?
Answer: 63 ± 4%

Question: What about the “Lipid accumulation in hepatocytes after steatosis induction with oleic acid, % of control” value (hepatocytes HepG2) of the same compound?
Answer: did not have any significant effect

Question: What does the source list for `O=S(=O)([O-])[O-].[O]=[V+2]` [VOSO4, reference compound]?
Answer: Inhibition of PTP1B, percentage of inhibition of the control (PTP1B): 62%; Log IC50 ± SD PTP1B (PTP1B): −7.00 ± 0.07; IC50 (PTP1B): 99 nM; IC50 (LAR): 95 nM; Inhibition of LAR, percentage of inhibition of the control (LAR): 44%; Inhibition of PP2A, percentage inhibition of control ± SD (PP2A; 1 µM): 32 ± 2%; Inhibition of PP2A, percentage inhibition of control ± SD (PP2A; 10 µM): 40 ± 3%; Lipid accumulation in hepatocytes after steatosis induction with oleic acid, % of control (hepatocytes HepG2): did not have any significant effect

Source: publication PMC10892041, “Vanadium Complexes with Thioanilide Derivatives of Amino Acids: Inhibition of Human Phosphatases and Specificity in Various Cell Models of Metabolic Disturbances” (Pharmaceuticals, 2024)
